Our source for the Percent inhibition values is patent EP0741749B1, “MERCURY BINDING POLYPEPTIDES AND N[…] THEREFOR” (priority 1994, dated 1995).

The experiment concerns binding of antibody secreted by hybridoma designated as 1F10 to immobilized glutathione-mercuric ion. Kind of experiment: Competitive inhibition ELISA: inhibition of antibody binding by metal ions. The note with it: culture fluid of 1F10; at the highest concentration (final range 10^-1 M to 10^-6 M); 100000 µM. As to the method: Various methods were used to confirm that the antibodies secreted by hybridomas 4A10 and 1F10 were specific to mercuric ions. If the antibody being secreted by these hybridomas were specific, it should be possible to inhibit binding of the antibody to glutathione-mercuric ions by incubation in the presence of various concentrations of mercuric chloride. This competitive inhibition assay was conducted with antibody-containing culture fluids from the parental hybridomas 4A10 and 1F10.
Metal ions at the indicated concentrations were incubated with culture fluid from the monoclonal antibody in an enzyme-linked immunosorbent assay ("ELISA") plate. The absorbance at 405 nm was determined for each sample, and the percent inhibition of each metal ion concentration was determined by the following formula: Percent inhibition=(A405 of inhibitor - A405 of neg. control)/(A405 of pos. control - A405 of neg. control) [formula]
Various other metals were assayed for inhibition of binding of the monoclonal antibodies to mercuric ion. […] The absorbance at 405 nm was determined for each sample, and the percent inhibition of each metal ion concentration was determined by the same formula used for Figure 1. […]
The negative control measured the binding of a dinitrophenol specific antibody to the antigen mentioned above in the presence of the corresponding metal ions. […]
For orientation: In an ELISA, binding on a coated surface is turned into a signal by an enzyme label.

Molecule `[Cl-].[Cl-].[Mg+2]` [magnesium chloride] gave a Percent inhibition of about 50%.
